Assay results from patent publication US6337330B1, “Antitussives” (priority 1997, dated 2002).
Blank lines part the entries; values can stand above or below the compound they belong to.

Assays:
[1] = system: Rat Model of Capsaicin-induced Cough; assay: Antitussive action using rat model of capsaicin-induced cough; assay type: in vivo, SD male rats; settings: 30 minutes after administration, capsaicin 60 μM, versus distilled water group
From the text: Evaluation of Antitussive Action Using Rat Model of Capsaicin-induced Cough
Rat groups each consisting of 5 SD male rats (Charles River Japan) of 7 weeks old were used. The rats not anesthetized were placed in a container comprising two acrylic cylinders including a head and a body. A rubber collar and plastic collar were put on each of the rats, and the head and body of the container were independently provided.
Capsaicin used as a medicine for inducing coughs was aerosolized by an ultrasonic nebulizer, and inhaled by the rats from the front side of the container by using an artificial respiration apparatus. The concentration of capsaicin was 60 μM. In this inhalation, the flow rate of air was 10 ml×70 times/min (700 ml/min). Changes in internal pressure of the closed body box were recorded on a recorder through a differential transducer. Coughs were measured by the changes in internal the body box and visually observing the motions of the rats.
A medicine was diluted with distilled water, and 1 to 10 mg/5 ml/kg was subcutaneously administered.
Each of the rats was fixed by a holder, and 60 minutes after, capsaicin was inhaled for 3 minutes to count the number of coughs. The rats having at least 9 coughs were subjected to examination of a medicine. The rats were administered subcutaneously with a medicine, and fixed by a holder, and 30 minutes after, capsaicin was inhaled for 3 minutes to count the number of coughs. The antitussive action of each of compounds was represented by the inhibition rate shown by the number of coughs of the group in which a medicine was administered based on the number of coughs of the group in which distilled water was administered.

[2] = system: Mouse Model of Capsaicin-induced Cough; assay: Antitussive action using mouse model of capsaicin-induced cough; assay type: in vivo
Method: Evaluation of Antitussive Action Using Mouse Model of Capsaicin-induced Cough
Capsaicin (30 μM) was sent as aerosol to a cap attached to the head of a mouse by using an ultrasonic nebulizer and an artificial respiratory apparatus through a silicon tube, and inhaled by the mouse to induce coughs. For inhalation of capsaicin, capsaicin was sent by using the artificial respiratory apparatus at a rate of 60 times per minute in a dose of 5 ml at a time.
15 minutes before administration of a medicine, capsaicin was inhaled for 3 minutes, and it was confirmed that coughs were induced during this time. 15 minutes, 60 minutes and 120 minutes after administration of a medicine, capsaicin was inhaled for 3 minutes to measure the number of coughs induced during this time. The antitussive effect was evaluated by determining the inhibition rate shown by the number of coughs after administration of a medicine based on the number of coughs before administration of a medicine. Capsaicin was dissolved in 10% ethanol and a 10% Tween 80 solution, and diluted with physiological saline. The medicine was dissolved in physiological saline, and intraperitoneally administered.

SMILES: Oc1cccc([C@@]23CCN(CC4CC4)CC2Cc2cc4ccccc4nc2C3)c1 (stereo in doubt) [Compound 6, (4aR, 12aR)-2-cyclopropylmethyl-4a-(3-hydroxyphenyl)-1,2,3,4,4a,5,12,12a-octahydroquinolino[2,3-g]isoquinoline]
- Inhibition rate (%) of number of coughs ([1]; 1 mg/kg subcutaneous): 30.9%

SMILES: Oc1cccc([C@@]23CCN(CCc4ccccc4)C[C@H]2Cc2cc4ccccc4nc2C3)c1 [Compound 7, (4aR, 12aR)-2-(2-phenethyl)-4a-(3-hydroxyphenyl)-1,2,3,4,4a,5,12,12a-octahydroquinolino[2,3-g]isoquinoline]
- Inhibition rate (%) of number of coughs ([1]; 1 mg/kg subcutaneous): 44.3%

SMILES: Oc1cccc([C@@]23CCNCC2Cc2cc4ccccc4nc2C3)c1 (stereo in doubt) [Compound 4, (4aR, 12aR)-4a-(3-hydroxyphenyl)-1,2,3,4,4a,5,12,12a-octahydroquinolino[2,3-g]isoquinoline]
- Inhibition rate (%) of number of coughs ([1]; 10 mg/kg subcutaneous): 34.0%

- melting point: 154 to 155.5 °C
SMILES: COc1cccc([C@@]23CCN(C)C[C@@H]2Cc2cc4ccccc4nc2C3)c1

SMILES: CN1CC[C@@]2(c3cccc(O)c3)Cc3nc4ccccc4cc3CC2C1 (stereo in doubt) [Compound 2, (4aR, 12aR)-2-methyl-4a-(3-hydroxyphenyl)-1,2,3,4,4a,5,12,12a-octahydro-quinolino[2,3-g]isoquinoline]
- time of peak antitussive effect after administration ([2]; 10 μg/kg intraperitoneal): 15 min
- antitussive effect 120 minutes after administration ([2]; 10 μg/kg intraperitoneal, 120 minutes after administration): recovered to the same level as a group in which physiological saline was administered
- effect of suppressing coughs (inhibition rate of number of coughs) ([2]; 10 μg/kg intraperitoneal, versus physiological saline group, p<0.05 (U test)): significant effect of suppressing coughs
- ED50 ([2]; ip, intraperitoneal, fifteen minutes after administration, capsaicin 30 μM inhalation, calculated from FIG. 2, read-out: ED50 value of the antitussive effect): 4.2 µg/kg
- Inhibition rate (%) of number of coughs ([1]; 1 mg/kg subcutaneous): 72.5%
